Assay results reported in patent publication US20080317692A1, “SUICIDE SUBSTRATES OF TYROSINASE AND USE THEREOF” (SUSTINEO BIOTECHNOLOGY CO., LTD, priority 2007, published 2008).

Columns and labels:
mushroom tyrosinase [1] = experiment: HPLC analysis of the reaction of isoflavone with tyrosinase (substrate behaviour); assay type: biochemical; details: 100 μM isoflavone, tyrosinase 1000 units/mL, 50 mM phosphate buffer pH 6.8 (FIG. 3)
mushroom tyrosinase [2] = experiment: Partition ratio of suicide substrate (method of Waley, titration of tyrosinase); assay type: biochemical; details: for molecules required to inactivate 1 molecule of the enzyme (1+r): 0.1 μM tyrosinase, preincubated 30 min at 25° C., by extrapolation (FIG. 5); for partition ratio r: from the intercept on the abscissa in FIG. 5, which is 1+r
mushroom tyrosinase [3] = experiment: Enzymatic assay of tyrosinase (dopachrome formation at 475 nm, L-tyrosine or L-DOPA as substrate); assay type: biochemical; details: 0.05 mM isoflavone; for inhibition of monophenolase activity (dopachrome formation): 0.1 mM L-tyrosine as substrate (FIG. 2A); for lag time of monophenolase activity (L-tyrosine oxidation): 0.1 mM L-tyrosine, tyrosinase 100 units/mL (FIG. 2A)
Experimental: Ten microliters of the test sample (dissolved in DMSO) was mixed with 970 μL of 0.112 mM substrate (L-tyrosine or L-DOPA dissolved in 50 mM phosphate buffer, pH 6.8) at 25° C. for 2 min. […] The increase in absorbance at 475 nm due to the formation of dopachrome was monitored with a spectrophotometer.

mushroom tyrosinase [4] = experiment: Michaelis constant and maximal inactivation rate constant (method of Frere et al.); assay type: biochemical; details: for maximal inactivation rate constant ki-max / Ki: 0.03 μM tyrosinase, 2.5 mM L-DOPA as enzyme substrate, 50 to 300 μM suicide substrate (FIG. 6); for Ki: read-out: Michaelis constant KI of the inactivator
From the text: The kinetics of inhibition of 7,8,4′-trihydroxyisoflavone and 5,7,8,4′-tetrahydroxyisoflavone were studied by using the method of Frere et al. and by measuring the oxidation of L-DOPA by mushroom tyrosinase in the presence of each of the two suicide substrates. During the assay, the concentration of the tested suicide substrate was much higher than that of the enzyme. When the progress of the inactivation of the enzyme was monitored at high suicide substrate/enzyme ratios, the concentration of suicide substrate ([I]) could be considered as constant throughout the process and a pseudo-first-order rate constant (ki) could be determined by using equation 1, where ki-max and KI represent the maximal inactivation velocity and the Michaelis constant of the inactivator.
In the presence of L-DOPA, the exponential decrease in the rate of oxidation of L-DOPA gave an apparent first-order rate constant kobs, which was computed from plots of ln(vt/v0) against t, where v0 and vt are the rates of increase of absorbance at 475 nm, at zero time and at time t, respectively. Assuming a competitive interaction between the added isoflavone and L-DOPA with the enzyme, the variation of kobs with the concentrations of the isoflavone ([I]) and L-DOPA ([S]) are given by equation 2
where KS and KI are the Michaelis constants for L-DOPA and the isoflavone, respectively. When equation 2 is written as
[I]/kobs=[I]/ki-max+KI/ki-max(1+[S]/KS) (3)
it is clear that a plot of [I]/kobs against [I] will be linear and that ki-max and KI can be found from the intercept and slope.
The Michaelis constants (KI) and maximal inactivation rate constants (ki-max) of suicide substrates were determined according to the method of Frere et al. (17). The inactivation reactions were carried out in the presence of 0.03 μM mushroom tyrosinase, 2.5 mM L-DOPA, and the suicide substrate at concentrations ranging from 50 to 300 μM, and the formation of dopachrome was monitored every second for 2 min with a spectrophotometer. […] Both KI and ki-max could thus be calculated, assuming a competition between the added isoflavone and L-DOPA.

mushroom tyrosinase [5] = experiment: Irreversible inhibitory activity assay (preincubation with tyrosinase, then L-DOPA); details: for enzyme inactivation after preincubation: 10 μM isoflavone, after 7 min of preincubation (FIG. 4); for type of inhibition: preincubation with 3 or 10 μM isoflavone
Experimental: In irreversible inhibitory activity assays, 20 units of tyrosinase was preincubated with a 3 or 10 μM concentration of the tested isoflavone (dissolved in DMSO) in 1 mL of 50 mM phosphate buffer (pH 6.8) at 25° C. At intervals of 0, 2, 7, 12, and 30 min, 200 μL of the preincubation mixture was mixed with 800 μL of 2.5 mM L-DOPA and incubated at 25° C. for 10 min. The formation of dopachrome in each reaction was monitored with a spectrophotometer. The relative activity was calculated by dividing the absorbance at 475 nm of each reaction by that of the control reaction, in which DMSO replaced the added isoflavone. For recovery experiments, the preincubation mixture incubated for 30 min was either dialyzed twice against 200 mL of phosphate buffer at 4° C. for 1 h with stirring or centrifuged through a Sephadex G-25 spin column (Sigma). Then, the residual tyrosinase activities of the mixtures from the two treatments were assayed as described above.
Then, 800 μL of 2.5 mM L-DOPA was added, and the reaction mixture was incubated at 25° C. for 10 min. For comparison, another set of experiments was conducted by mixing immediately the tested compound, tyrosinase, and L-DOPA in 1 mL of phosphate buffer and incubated at 25° C. for 10 min. The formation of dopachrome in each reaction was monitored with a spectrophotometer. The relative activity was calculated by dividing the absorbance at 475 nm of each reaction mixture by that of the control reaction, in which DMSO replaced the tested compound. All enzymatic reactions described above were carried out at least three times independently, and the average values are presented.

SMILES | behaviour as substrate of tyrosinase (HPLC) (mushroom tyrosinase [1]) | molecules required to inactivate 1 molecule of the enzyme (1+r) (mushroom tyrosinase [2]) [molecules] | partition ratio r (mushroom tyrosinase [2]) | inhibition of monophenolase activity (dopachrome formation) (mushroom tyrosinase [3]) | lag time of monophenolase activity (L-tyrosine oxidation) (mushroom tyrosinase [3]) | maximal inactivation rate constant ki-max (mushroom tyrosinase [4]) [L·min] | Ki (mushroom tyrosinase [4]) [µM] | enzyme inactivation after preincubation (mushroom tyrosinase [5]) | type of inhibition (mushroom tyrosinase [5]) | Michaelis constant KS for L-DOPA (mushroom tyrosinase [4]; same experimental conditions) [mM]
O=c1c(-c2ccc(O)cc2)coc2c(O)c(O)cc(O)c12 [5,7,8,4′-tetrahydroxyisoflavone] | acted as the substrates of mushroom tyrosinase | 36.5±3.8 | 35.5±3.8 | slowed and stopped the formation of dopachrome | without the lag time | 1.01 ± 0.04 | 7.81 ± 0.05 | totally inactivated | irreversible inhibitors | 
N[C@@H](Cc1ccc(O)c(O)c1)C(=O)O [L-DOPA, 3,4-dihydroxyphenylalanine, reference compound] |  |  |  |  |  |  |  |  |  | 0.25 ± 0.01
O=c1c(-c2ccc(O)cc2)coc2c(O)c(O)ccc12 [7,8,4′-trihydroxyisoflavone] | acted as the substrates of mushroom tyrosinase | 82.7±5.9 | 81.7±5.9 | slowed and stopped the formation of dopachrome | without the lag time | 0.79 ± 0.08 | 18.7 ± 2.31 | totally inactivated | irreversible inhibitors | 
